Square brackets hold non-standard residues; d marks the D form. Peptide text beside a SMILES is read from it. * marks the point of attachment. ξ: configuration not given here. Dansyl = CN(C)c1cccc2c(S(=O)(=O)*)cccc12; ξL = CC(C)CC(N)C(=O)O
Tested on: receptor labeled by the radioiodinated analogue of 1 (4, [125I]-YLFQPQRF-NH2); neuropeptide FF receptor
Assay: Competitive radioligand binding against 4 ([125I]Y8F-amide)
Conditions: mixture-based positional scanning; difference from averaged radioligand displacement of whole library (0); about 80 a.u. = 10-fold change in Ki
From the text: Additionally, three-dimensional (3-D) molecular models of the known smaller-size neuropeptide FF antagonists 3 and 3a were constructed and their low-energy conformations were obtained in the AMBER force-field [Weiner, et al., J. Comput. Chem. 1986, 7, […].] by molecular dynamics calculations involving simulated annealing. A semi-empirical quantum chemical method with the PM3 parameterization [Stewart, J. Comput. Chem. 1989, 10, 209-220.] was used for the final geometry optimization. […] At least one of the rings in domain B is aromatic. No similarity between 3 and 3a outside these domains were apparent; therefore, the simultaneous presence of A and B domains in the structure of neuropeptide FF (1) antagonists is critical to the invention. Apparently, structural subunits (domain C) outside domains A and B should function in a cooperative manner in directing the pharmacophores into proper geometric positions when improved binding to the cognate receptor is to be obtained, which is associated with the improvement of the desired pharmacological effect. An approach involving mixture-based synthetic combinatorial libraries and positional scanning [(a) Houghten, et al., J. Med Chem. 1999, 42, 3743-3778.] was adopted in the search for preferred structural motifs in domain C that assist in achieving this objective in this invention. To allow for the use of 3 as a reference in this process, the guadinino group (A) was incorporated as part of an L-2-amino-5-{[amino(imino)methyl]amino}pentanoyl (arginyl, R, Arg) residue and 5-dimethylamino-1-naphthalenesulphonyl (dansyl) was chosen to form B (However, it must be emphasized that both R and dansyl are replaceable with moieties that bestow A and B domain attributes described in the invention).
Upon screening for residues to replace the glutamine of 3, serine (S) was the only building block in this position that increased the displacement of 4 in the radioligand-binding assay. Therefore, motifs present in dansyl-Gly-Ser-Arg-NH2, dansyl-Gly-Gln-Arg-NH2, dansyl-Gln-Ser-Arg-NH2, and dansyl-Gln-Gln-Arg-NH2 were chosen based on their affinity to the cognate receptor for further consideration as primary templates when designing the domain C of the compounds described in the invention herein. […]

Structure (SMILES) | Relative Binding Index (RBI)
C[C@H](NC(=O)[C@H](C)NS(=O)(=O)c1cccc2c(N(C)C)cccc12)C(=O)N[C@@H](CCCNC(=N)N)C(N)=O [Dansyl-AAR-amide] (Dansyl-Ala-Ala-Arg-NH2) | −37 a.u.
C[C@H](NS(=O)(=O)c1cccc2c(N(C)C)cccc12)C(=O)N[C@@H](CC(=O)O)C(=O)N[C@@H](CCCNC(=N)N)C(N)=O [Dansyl-ADR-amide] (Dansyl-Ala-Asp-Arg-NH2) | −6 a.u.
C[C@H](NS(=O)(=O)c1cccc2c(N(C)C)cccc12)C(=O)N[C@@H](CCC(=O)O)C(=O)N[C@@H](CCCNC(=N)N)C(N)=O [Dansyl-AER-amide] (Dansyl-Ala-Glu-Arg-NH2) | 12 a.u.
C[C@H](NS(=O)(=O)c1cccc2c(N(C)C)cccc12)C(=O)N[C@@H](Cc1ccccc1)C(=O)N[C@@H](CCCNC(=N)N)C(N)=O [Dansyl-AFR-amide] (Dansyl-Ala-Phe-Arg-NH2) | 11 a.u.
C[C@H](NS(=O)(=O)c1cccc2c(N(C)C)cccc12)C(=O)NCC(=O)N[C@@H](CCCNC(=N)N)C(N)=O [Dansyl-AGR-amide] (Dansyl-Ala-Gly-Arg-NH2) | 18 a.u.
C[C@H](NS(=O)(=O)c1cccc2c(N(C)C)cccc12)C(=O)N[C@@H](Cc1c[nH]cn1)C(=O)N[C@@H](CCCNC(=N)N)C(N)=O [Dansyl-AHR-amide] (Dansyl-Ala-His-Arg-NH2) | 6 a.u.
CC[C@H](C)[C@H](NC(=O)[C@H](C)NS(=O)(=O)c1cccc2c(N(C)C)cccc12)C(=O)N[C@@H](CCCNC(=N)N)C(N)=O [Dansyl-AIR-amide] (Dansyl-Ala-Ile-Arg-NH2) | 19 a.u.
C[C@H](NS(=O)(=O)c1cccc2c(N(C)C)cccc12)C(=O)N[C@@H](CCCCN)C(=O)N[C@@H](CCCNC(=N)N)C(N)=O [Dansyl-AKR-amide] (Dansyl-Ala-Lys-Arg-NH2) | 10 a.u.
CC(C)CC(NC(=O)[C@H](C)NS(=O)(=O)c1cccc2c(N(C)C)cccc12)C(=O)N[C@@H](CCCNC(=N)N)C(N)=O (some centres unmarked) [Dansyl-ALR-amide] (Dansyl-Ala-[ξL]-Arg-NH2) | 4 a.u.

Continued, values first:

Relative Binding Index (RBI) | Structure (SMILES)
12 a.u. | CSCC[C@H](NC(=O)[C@H](C)NS(=O)(=O)c1cccc2c(N(C)C)cccc12)C(=O)N[C@@H](CCCNC(=N)N)C(N)=O [Dansyl-AMR-amide] (Dansyl-Ala-Met-Arg-NH2)
13 a.u. | C[C@H](NS(=O)(=O)c1cccc2c(N(C)C)cccc12)C(=O)N[C@@H](CC(N)=O)C(=O)N[C@@H](CCCNC(=N)N)C(N)=O [Dansyl-ANR-amide] (Dansyl-Ala-Asn-Arg-NH2)
15 a.u. | C[C@H](NS(=O)(=O)c1cccc2c(N(C)C)cccc12)C(=O)N1CCC[C@H]1C(=O)N[C@@H](CCCNC(=N)N)C(N)=O [Dansyl-APR-amide] (Dansyl-Ala-Pro-Arg-NH2)
26 a.u. | C[C@H](NS(=O)(=O)c1cccc2c(N(C)C)cccc12)C(=O)N[C@@H](CCC(N)=O)C(=O)N[C@@H](CCCNC(=N)N)C(N)=O [Dansyl-AQR-amide] (Dansyl-Ala-Gln-Arg-NH2)
11 a.u. | C[C@H](NS(=O)(=O)c1cccc2c(N(C)C)cccc12)C(=O)N[C@@H](CCCNC(=N)N)C(=O)N[C@@H](CCCNC(=N)N)C(N)=O [Dansyl-ARR-amide] (Dansyl-Ala-Arg-Arg-NH2)
33 a.u. | C[C@H](NS(=O)(=O)c1cccc2c(N(C)C)cccc12)C(=O)N[C@@H](CO)C(=O)N[C@@H](CCCNC(=N)N)C(N)=O [Dansyl-ASR-amide] (Dansyl-Ala-Ser-Arg-NH2)
18 a.u. | C[C@H](NS(=O)(=O)c1cccc2c(N(C)C)cccc12)C(=O)N[C@H](C(=O)N[C@@H](CCCNC(=N)N)C(N)=O)[C@@H](C)O [Dansyl-ATR-amide] (Dansyl-Ala-Thr-Arg-NH2)
7 a.u. | CC(C)[C@H](NC(=O)[C@H](C)NS(=O)(=O)c1cccc2c(N(C)C)cccc12)C(=O)N[C@@H](CCCNC(=N)N)C(N)=O [Dansyl-AVR-amide] (Dansyl-Ala-Val-Arg-NH2)

Source: patent US6960574B2, “Antagonists of RF-amide neuropeptides” (University of Florida, priority 2002, dated 2005)
